Laboratory results reported in article PMC7693775, “AGTR1 Is Overexpressed in Neuroendocrine Neoplasms, Regulates Secretion and May Potentially Serve as a Target for Molecular Imaging and Therapy” (Cancers, 2020).
Where two headings read alike, the source gives them in different places.

Experiments:
[1] = test system: H727 cells; assay: intracellular calcium mobilization assay; type: cell-based, human; details: preincubation 15-30 min before ATII (valsartan, PD123319: 1 µM)
Method: (§1) If not indicated otherwise, cell culture reagents were obtained from Biochrom AG (Berlin, Germany). The human NEN cell lines BON and QGP-1 (pancreatic), LCC-18 (colonic), H727 and UMC-11 (pulmonary) and all other cell lines were cultured in RPMI 1640 supplemented with 10 % fetal calf serum in a humidified atmosphere at 37 °C and 5% CO2. BON cells were a kind gift of Courtney Townsend (University of Texas, Galveston, TX, USA). LCC-18 were kindly donated by Kjell Ö berg (University of Uppsala, Uppsala, Sweden) and KRJ-1 by Dr. Irvin Modlin (Yale University, New Haven, CT, USA). QGP-1 were obtained from the Japanese Collection of Research Bioresources.
(§2) All other cell lines were obtained from Cell Line Services (Heidelberg, Germany), DSMZ (Braunschweig, Germany) or ATCC (Manassas, VA, USA). Cells were cultured for no more than 20 passages. Mycoplasma testing was done at least every six months. Cell lines were authenticated by STR analysis at DSMZ (Braunschweig, Germany). Due to the lack of reference profiles for BON and LCC-18, their respective STR profile was characterized as unique and not contamina ted with any […]
(§3) Table 1. STR profiling data for BON and LCC -18 cells.
(§4) Experiments in 96-well format were performed as previously described (18). […]

[2] = target: T1, ATII receptor (AGTR1, AGTR2) (Homo sapiens, UniProt P30556); assay: in vitro receptor autoradiography of tissue cryosections; type: binding; details: 1 µM competitor
T1 construct: Consecutive cryosections of each tissue were incubated with the radioligand in the absence or presence of an excess of non-labeled ATII; from tissue; host or cells: flash-frozen cryosections of patient pancreatic and small-intestinal NEN and of control pancreas, small intestine and liver
T1 sequence (P30556 1-359): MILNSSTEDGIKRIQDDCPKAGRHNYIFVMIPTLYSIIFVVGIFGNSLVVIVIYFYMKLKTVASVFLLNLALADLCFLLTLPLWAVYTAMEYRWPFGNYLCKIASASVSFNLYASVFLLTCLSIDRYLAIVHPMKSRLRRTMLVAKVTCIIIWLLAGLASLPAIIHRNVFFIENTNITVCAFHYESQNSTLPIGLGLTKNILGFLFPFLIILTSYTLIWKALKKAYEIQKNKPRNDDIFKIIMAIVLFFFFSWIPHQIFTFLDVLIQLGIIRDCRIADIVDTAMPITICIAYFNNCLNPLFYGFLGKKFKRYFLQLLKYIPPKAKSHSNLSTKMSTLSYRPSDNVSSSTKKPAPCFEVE

[3] = target: T2, ATII receptor (AGTR1, AGTR2) (Homo sapiens, UniProt P50052); assay: as above; type: binding; details: normal pancreas; 1 µM competitor
T2 construct: Consecutive cryosections of each tissue were incubated with the radioligand in the absence or presence of an excess of non-labeled ATII; from tissue; host or cells: flash-frozen cryosections of patient pancreatic and small-intestinal NEN and of control pancreas, small intestine and liver
T2 sequence (P50052 1-363): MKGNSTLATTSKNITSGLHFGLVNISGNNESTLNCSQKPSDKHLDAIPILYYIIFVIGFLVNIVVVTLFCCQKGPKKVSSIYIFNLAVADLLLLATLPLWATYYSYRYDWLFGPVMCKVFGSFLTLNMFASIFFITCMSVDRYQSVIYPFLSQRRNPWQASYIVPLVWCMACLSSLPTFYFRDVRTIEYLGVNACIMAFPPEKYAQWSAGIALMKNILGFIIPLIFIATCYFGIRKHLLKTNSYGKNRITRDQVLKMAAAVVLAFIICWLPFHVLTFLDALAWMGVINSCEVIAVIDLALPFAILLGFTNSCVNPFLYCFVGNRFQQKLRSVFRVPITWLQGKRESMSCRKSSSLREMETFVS

[4] = test system: BON cells; type: cell-based, human; details: for effect on ATII-induced calcium signal: BON cells, preincubation 15-30 min before ATII (valsartan, PD123319: 1 µM)
[5] = target: T3, AGTR1 (Homo sapiens, UniProt P30556); assay: competition binding with 125I-ATII, H727 cells
T3 sequence (P30556 1-359): T1 sequence (P30556 1-359)
Method: (§5) The Boc-protected ITCC dye (69 mg) was dissolved in DCM (3.0 mL) and subjected to deprotection by addition of TFA (300 µL). The reaction mixture was stirred for 2 h, the solvent removed under reduced pressure and the mixture codistilled with DCM several times to remove […]
(§6) TFA. […] MS (ESI): C39H51N4NaO7S2
(§7) 2.2 eq.) and DIPEA (7.2 µL, 42 µmol, 4.7 eq.) and the reaction mixture stirred for 1 h. The deprotected ITCC dye (8.0 mg, 9.0 µmol, 1.0 eq.) was dissolved in DMF (125 µL) with DIPEA (3.6 µL, 21 µmol, 2.3 eq.) and added to the reaction mixture which was stirred for additional 17 h. The mixture was precipitated from Et2O and the precipitate purified via flash chromatography (DCM/MeOH) to afford […]
(§8) Peptide iodination was performed as previously described [ 1 ].
(§9) (Sigma, Deisenhofen, Germany) were iodinated with 1 mCi carrier -free Na 125 I (NEZ033L010MC, Perkin Elmer, Waltham, MA, USA) and purified by HPLC (Analyt ic HPLC 1200 Series, Agilent, Santa Clara, CA, USA; see Figure S1 in supplementary material). The method for the competitive binding assay was described in detail before. For saturation experiments, binding buffer was prepared […]
(§10) of additional unlabeled peptide (total binding). Non -specific binding was subtracted from total binding to obtain spec ific binding. […]

[6] = target: T3, AGTR1; assay: competition binding with 125I-ATII, BON cells
Method: as §5, §6, §7, §8, §9, §10

[7] = test system: AGTR1-positive BON tumors; assay: in vivo near-infrared fluorescent imaging, xenograft; design: species or system mice
Method: seeded with 15,000/50,000 cells per well.
(§11) free medium for 10 min at room tem perature. A buffer baseline was obtained on the dynamic mass
(§12) used and plotted with GraphPad Prism 5.04.
(§13) For in vivo receptor targeting, the near -infrared fluorescent
(§14) in 100 µ L 0.9 % NaCl per animal).
(§15) fluorescence intensities.
(§16) animal research authorities.
First Linear Peptidic Urotensin -II Receptor Agonist. J. Med. Chem. 2016 , 59, 10100–10112,

[8] = test system: receptor negative QGP-1 tumors; details: 1 nmol i.v., NIRF imaging
Method: as §11, §12, §13, §14, §15, §16
J. Med. Chem. 2016 , 59, 10100–10112,

[9] = test system: BON cells; assay: serotonin ELISA of cell supernatants; type: cell-based, human; details: 1 µM, 6 h
Method: as §1, §2, §3, §4

[10] = test system: BON cells; assay: chromogranin A ELISA of cell supernatants; type: cell-based, human; details: 10 µM preincubation 15 min, 100 nM ATII
Method: as §1, §2, §3, §4

[11] = test system: H727 cells; assay: metabolic activity (AlamarBlue); type: cell-based, human; details: 96 h, different concentrations
Method: (§17) filter paper and measured in a gamma counter. Additional tissue sections were stained with hematoxylin and eosin for comparison with the corresponding autoradiograms.
as §1, with “Bioresources. […]” for “Bioresources.”
(§18) Cells were seeded in quadruplicates at a density of 5,000 cells in 50 µ L medium per well in 96 well plates, grown overnight and treated with the indicated ligand concentrations (on top of the well, final volume 100 µ L). After 96 h, metabolic activity was determined by addition of 100 µ L medium containing AlamarBlue™ redox indicator (Thermo Fisher, Waltham, MA, US) to each well. After 3 –4 h, the resulting fluorescence was measured with an EnVision Multilabel Plate Reader (Perkin Elmer, Waltham, USA). […]

[12] = test system: BON cells; assay: metabolic activity (AlamarBlue); type: cell-based, human; details: 96 h, different concentrations
Method: as §17
as §1, with “Bioresources. […]” for “Bioresources.”
as §18

[13] = target: AGTR1; design: method as in PMID 25313325; details: read-out: published Ki; cited from earlier work
[14] = target: 125I-angiotensin II (Homo sapiens), P01019; assay: radioligand
[15] = target: angiotensin II (Homo sapiens), P01019; assay: competition
[16] = target: angiotensin II (Homo sapiens), P01019; assay: competition; remark: listed apart in the source

angiotensin II (Homo sapiens), P01019, sequence (P01019 whole entry, looked up): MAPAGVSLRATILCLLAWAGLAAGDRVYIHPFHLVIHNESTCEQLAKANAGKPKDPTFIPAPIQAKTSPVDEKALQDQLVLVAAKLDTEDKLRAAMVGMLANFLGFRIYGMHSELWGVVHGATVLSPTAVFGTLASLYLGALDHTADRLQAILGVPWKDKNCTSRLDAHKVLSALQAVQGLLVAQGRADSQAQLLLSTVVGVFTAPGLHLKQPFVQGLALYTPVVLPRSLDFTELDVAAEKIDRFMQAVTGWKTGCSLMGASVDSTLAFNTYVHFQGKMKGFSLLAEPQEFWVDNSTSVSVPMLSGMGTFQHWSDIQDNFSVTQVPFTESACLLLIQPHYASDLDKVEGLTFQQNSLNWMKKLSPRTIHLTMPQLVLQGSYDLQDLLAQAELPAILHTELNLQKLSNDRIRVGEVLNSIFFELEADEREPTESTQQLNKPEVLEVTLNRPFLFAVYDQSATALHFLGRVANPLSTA
125I-angiotensin II (Homo sapiens), P01019, sequence (P01019 whole entry, looked up): as above

Which results are given for `Cc1cc(Cn2cnc3c2C[C@@H](C(=O)O)N(C(=O)C(c2ccccc2)c2ccccc2)C3)ccc1N(C)C` [PD123319]?
effect on ATII-induced calcium signal [1]: did not influence; displacement of 125I-ATII binding ([2]; pancreatic NEN tissues #1, #4, #6, #8): not; displacement of 125I-ATII binding ([2]; small-intestinal NEN tissues): unable to compete; displacement of 125I-ATII binding [3]: displaced; effect on ATII-induced calcium signal [4]: did not influence; displacement of 125I-ATII binding [5]: not; displacement of 125I-ATII binding [6]: not

For `CC(C)[C@H](NC(=O)[C@H](CCCNC(=N)N)NC(=O)CN(C)C(=O)CCC(=O)NCCCOCCOCCOCCCNC(=O)c1ccc2c(c1)C(C)(C)C(=CC=CC=CC=CC1=[N+](CCCCS(=O)(=O)[O-])c3ccccc3C1(C)C)N2CCCCS(=O)(=O)O)C(=O)N[C@@H](Cc1ccc(O)cc1)C(=O)N[C@H](C(=O)N[C@@H](Cc1c[nH]cn1)C(=O)N1CCC[C@H]1C(=O)N[C@@H](C)C(=O)O)C(C)C` [saralasin–ITCC], which “accumulation in AGTR1-positive xenograft tumors” value ([7]; 1 nmol i.v., NIRF imaging) is on record?
The value was “selective accumulation”.

And the “ex vivo organ imaging” value ([7]; 6 hours after injection)?
Its value is “accumulation in kidneys and liver”.

What about the “uptake in QGP-1 tumors” value [8] of the same molecule?
Its value is “Low non-significant uptake”.

And the “decrease of affinity by ITCC versus published Ki of saralasin” value [6]?
Its value is 250 fold.

Which EC50 ([4]; 24 h) does the source give for `CC[C@H](C)[C@H](NC(=O)[C@H](Cc1ccc(O)cc1)NC(=O)[C@@H](NC(=O)[C@H](CCCNC(=N)N)NC(=O)[C@@H](N)CC(=O)O)C(C)C)C(=O)N[C@@H](Cc1c[nH]cn1)C(=O)N1CCC[C@H]1C(=O)N[C@@H](Cc1ccccc1)C(=O)O` [ATII, angiotensin II] here?
Its EC50 is 4.9 ± 5.2 nM.

With `CCOc1nc2cccc(C(=O)O)c2n1Cc1ccc(-c2ccccc2-c2nc(=O)o[nH]2)cc1` [azilsartan] as the molecule, how does the “serotonin (5HT) secretion” value [9] read?
The value was “did not modify”.

Which results are given for `CCCCC(=O)N(Cc1ccc(-c2ccccc2-c2nnn[nH]2)cc1)[C@H](C(=O)O)C(C)C` [valsartan]?
effect on ATII-induced calcium signal [1]: significantly diminish; effect on ATII-induced calcium signal [4]: significantly diminish; serotonin (5HT) secretion [9]: did not modify; effect on ATII-stimulated CgA secretion [10]: diminished; metabolic activity [11]: no change; metabolic activity [12]: no change

With saralasin as the molecule, how does the Ki [13] read?
Its Ki is 1 nM.

B1: Angiotensin II receptor type 1, P30556 (protein)
chain: T1 sequence (P30556 1-359)
What does the source list for B1?
Kd [14]: 0.6 nM; Ki [15]: 0.1 nM; Ki [16]: 0.2 nM
